# Measured values: article PMC4476799, “Englerin A Agonizes the TRPC4/C5 Cation Channels to Inhibit Tumor Cell Line Proliferation” (PLoS ONE, 2015)
# Read-outs that look alike come from different tables or passages of the source.
# Tested on: cancer cell lines from the cancer cell line encyclopedia (CCLE)
# Assay: Cell line profiling (CLiP) proliferation experiment
# Type: cell-based
# Conditions: Homo sapiens; for IC50: read-out: Crossing Point; for EC50: read-out: Inflection Point
# Procedure: Compound profiling experiment and data analysis was performed as previously described. Data was imported and plotted using the Tibco Spotfire DXP application. Lines were categorized as sensitive, intermediate and refractory as follows: Amax<-40 & Inflection Point <2 ~ Sensitive, Amax>-20 & Inflection Point >10 ~ Refractory, all else were called Intermediate. Cancer Cell line HG-U133 Plus 2 data was processed and normalized as described. […] Five sets of refractory cell lines were generated from the pool of refractory cell lines trying to match the lineage composition of the set of sensitive cell lines. The limma package was used as previously described to perform the statistical comparison.
# [1] = RS4-11, RS4;11 (haematopoietic_and_lymphoid_tissue)
# [2] = RS4-11, cell line RS4;11, haematopoietic_and_lymphoid_tissue, acute_lymphoblastic_B_cell_leukaemia
# [3] = RT-112, cell line RT-112, urinary_tract, transitional_cell_carcinoma
# [4] = RVH-421, cell line RVH-421, skin
# [5] = SCaBER, cell line SCaBER, urinary_tract, transitional_cell_carcinoma
# [6] = SET-2, cell line Set-2, haematopoietic_and_lymphoid_tissue, essential_thrombocythaemia
# [7] = SF-126, cell line SF126, central_nervous_system, astrocytoma
# [8] = SHP77, cell line SHP-77, lung, small_cell_carcinoma
# [9] = SJRH30, cell line SJRH30, soft_tissue
# [10] = SK-CO-1, cell line SK-CO-1, large_intestine, adenocarcinoma
# [11] = SK-ES1, cell line SK-ES-1, bone
# [12] = SK-MEL-24, cell line SK-MEL-24, skin
# [13] = SK-MES-1, cell line SK-MES-1, lung, squamous_cell_carcinoma
# [14] = SK-N-SH, cell line SK-N-SH, autonomic_ganglia
# [15] = SKM-1, cell line SKM-1, haematopoietic_and_lymphoid_tissue, acute_myeloid_leukaemia
structure (smiles),measurement,setting,value
CC(C)[C@@]12C[C@@H](O)[C@@](C)(O1)[C@@H]1CC[C@@H](C)[C@H]1[C@@H]2OC(=O)/C=C/c1ccccc1 [Englerin B],IC50,[1],17.9 µM
same,EC50,[1],17.9 µM
same,IC50,[2],17.9 µM
same,EC50,[2],17.9 µM
same,IC50,"RT-112, RT-112 cells",16.7 µM
same,EC50,"RT-112, RT-112 cells",16.7 µM
same,IC50,[3],16.7 µM
same,EC50,[3],16.7 µM
same,IC50,"RVH-421, RVH-421 cells",> 30 µM
same,EC50,"RVH-421, RVH-421 cells",11.6 µM
same,IC50,[4],> 30 µM
same,EC50,[4],11.6 µM
same,EC50,"Raji, Raji cells",18.4 µM
same,IC50,"Raji, cell line Raji",17.6 µM
same,EC50,"Raji, cell line Raji",18.4 µM
same,IC50,"Rec1, REC-1 cells",18.4 µM
same,EC50,"Rec1, REC-1 cells",18.4 µM
same,IC50,"Rec1, cell line REC-1",18.4 µM
same,EC50,"Rec1, cell line REC-1",18.4 µM
same,IC50,"Rh18, RH-18 cells",> 30 µM
same,IC50,"Rh18, cell line RH-18",> 30 µM
same,EC50,"Rh41, RH-41 (soft_tissue)",11.6 µM
same,IC50,"Rh41, cell line RH-41",11.6 µM
same,EC50,"Rh41, cell line RH-41",11.6 µM
same,IC50,"SCaBER, SCaBER (urinary_tract)",> 30 µM
same,EC50,"SCaBER, SCaBER (urinary_tract)",12.9 µM
same,IC50,[5],> 30 µM
same,EC50,[5],12.9 µM
same,EC50,"SET-2, Set-2 (haematopoietic_and_lymphoid_tissue)",22.9 µM
same,IC50,[6],15.9 µM
same,EC50,[6],22.9 µM
same,EC50,"SF-126, SF126 cells",12.3 µM
same,IC50,[7],23.2 µM
same,EC50,[7],12.3 µM
same,IC50,"SF-295, cell line SF-295, central_nervous_system, astrocytoma_Grade_IV",19.8 µM
same,IC50,"SHP77, SHP-77 cells",> 30 µM
same,EC50,"SHP77, SHP-77 cells",14.5 µM
same,IC50,[8],> 30 µM
same,EC50,[8],14.5 µM
same,IC50,[9],17.4 µM
same,EC50,[9],15.5 µM
same,EC50,"SJSA-1, SJSA-1 cells",16.1 µM
same,IC50,"SJSA-1, cell line SJSA-1, bone",29.1 µM
same,EC50,"SJSA-1, cell line SJSA-1, bone",16.1 µM
same,IC50,"SK-BR-3, SK-BR-3 cells",> 30 µM
same,IC50,"SK-BR-3, cell line SK-BR-3, breast",> 30 µM
same,EC50,"SK-CO-1, SK-CO-1 (large_intestine)",11.6 µM
same,IC50,[10],17.8 µM
same,EC50,[10],11.6 µM
same,IC50,[11],21.6 µM
same,EC50,[11],20.4 µM
same,IC50,"SK-LMS-1, SK-LMS-1 cells",> 30 µM
same,IC50,"SK-LMS-1, cell line SK-LMS-1, soft_tissue",> 30 µM
same,IC50,"SK-LU-1, SK-LU-1 (lung)",> 30 µM
same,IC50,"SK-LU-1, cell line SK-LU-1, lung, adenocarcinoma",> 30 µM
same,IC50,"SK-MEL3, SK-MEL-3 cells",> 30 µM
same,IC50,"SK-MEL3, cell line SK-MEL-3, skin",> 30 µM
same,IC50,"SK-MEL-1, cell line SK-MEL-1, skin",19.6 µM
same,IC50,"SK-MEL-2, SK-MEL-2 (skin)",> 30 µM
same,IC50,"SK-MEL-2, SK-MEL-2, second row, PRIMARY_SITE (Empty)",> 30 µM
same,IC50,"SK-MEL-2, cell line SK-MEL-2, skin",> 30 µM
same,IC50,"SK-MEL-5, SK-MEL-5 (skin)",> 30 µM
same,IC50,"SK-MEL-5, cell line SK-MEL-5, skin",> 30 µM
same,IC50,"SK-MEL-24, SK-MEL-24 (skin)",> 30 µM
same,IC50,[12],> 30 µM
same,EC50,[12],11.1 µM
same,IC50,"SK-MEL-30, cell line SK-MEL-30, skin",28 µM
same,EC50,"SK-MES-1, SK-MES-1 cells",25 µM
same,IC50,[13],26.5 µM
same,EC50,[13],25 µM
same,IC50,"SK-N-AS, SK-N-AS (autonomic_ganglia)",> 30 µM
same,IC50,"SK-N-AS, cell line SK-N-AS, autonomic_ganglia",> 30 µM
same,IC50,"SK-N-DZ, SK-N-DZ cells",> 30 µM
same,IC50,"SK-N-DZ, cell line SK-N-DZ, autonomic_ganglia",> 30 µM
same,IC50,"SK-N-FI, SK-N-FI (autonomic_ganglia)",> 30 µM
same,IC50,"SK-N-FI, cell line SK-N-FI, autonomic_ganglia",> 30 µM
same,IC50,"SK-N-SH, cell line SK-N-SH (autonomic_ganglia, NS)",> 30 µM
same,IC50,[14],> 30 µM
same,EC50,[14],7.74 µM
same,IC50,"SK-OV-3, SK-OV-3 (ovary)",> 30 µM
same,IC50,"SK-OV-3, cell line SK-OV-3, ovary, adenocarcinoma",> 30 µM
same,IC50,"SK-UT-1, SK-UT-1 (soft_tissue)",> 30 µM
same,IC50,"SK-UT-1, cell line SK-UT-1, soft_tissue",> 30 µM
same,IC50,[15],21.1 µM
same,EC50,[15],24.5 µM
same,IC50,"SKM-1, cell line SKM-1",21.1 µM
same,IC50,"SKNBE2, cell line SK-N-BE(2), autonomic_ganglia",> 30 µM
same,IC50,"SKNBE2, cell line SK-N-BE(2)",> 30 µM
same,IC50,"SNB-19, SNB-19 cells",> 30 µM
same,IC50,"SNB-19, cell line SNB-19, central_nervous_system, astrocytoma_Grade_IV",> 30 µM
same,IC50,"SNU1, SNU-1 (stomach)",> 30 µM
same,EC50,"SNU1, SNU-1 (stomach)",12.1 µM
